Test results taken from patent US11608323B2 (SYNGENTA LIMITED, priority 2013, dated 2023).

Columns and labels:
Assay type in all cases: in vivo
ALOMY [1] = experiment: Post-emergence herbicidal activity, glasshouse pot test; conditions: Alopecurus myosuroides; application post-emergence; rate 1000 g/Ha; evaluated after 13 days
Outline: (§1)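 Pot-grown plants, 8 days after sowing, were sprayed with compound formulated in acetone/water (50:50) with 0.5% Tween 20. Glasshouse conditions 24/16° C day/night, 14 h light, 65% humidity; damage scored after 13 days on a 0 (none) to 5 (total) scale.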

AMARE [2] = experiment: as above; conditions: Amaranthus retroflexus; application post-emergence; rate 1000 g/Ha; evaluated after 13 days
Outline: as §1

ABUTH [3] = experiment: as above; conditions: Abutilon theophrasti; application post-emergence; rate 1000 g/Ha; evaluated after 13 days
Outline: as §1

ECHCG [4] = experiment: as above; conditions: Echinochloa crus-galli; application post-emergence; rate 1000 g/Ha; evaluated after 13 days
Outline: as §1

SETFA [5] = experiment: as above; conditions: Setaria faberi; application post-emergence; rate 1000 g/Ha; evaluated after 13 days
Outline: as §1

ZEAMX [6] = experiment: as above; conditions: Zea mays; application post-emergence; rate 1000 g/Ha; evaluated after 13 days
Outline: as §1

ALOMY [7] = experiment: Pre-emergence herbicidal activity, glasshouse pot test; conditions: rate 1000 g/Ha, evaluated after 13 days, scale 0-5
Outline: (§2)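 Damage rated 13 days post-treatment on a 0-5 scale, 5 meaning total plant damage. Pots were sprayed pre-emergence, one day after sowing, with an acetone/water-derived aqueous spray containing 0.5% Tween 20. Plants grew under 14 h light, 65% humidity, 24/16 °C, watered twice daily.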

AMARE [8] = experiment: as above; conditions: rate 1000 g/Ha, evaluated after 13 days, scale 0-5
Outline: as §2

ABUTH [9] = experiment: as above; conditions: rate 1000 g/Ha, evaluated after 13 days, scale 0-5
Outline: as §2

ECHCG [10] = experiment: as above; conditions: rate 1000 g/Ha, evaluated after 13 days, scale 0-5
Outline: as §2

SETFA [11] = experiment: as above; conditions: rate 1000 g/Ha, evaluated after 13 days, scale 0-5
Outline: as §2

ZEAMX [12] = experiment: as above; conditions: rate 1000 g/Ha, evaluated after 13 days, scale 0-5
Outline: as §2

Compound | Post-emergence herbicidal activity ALOMY (damage score 0-5) (ALOMY [1]) | Post-emergence herbicidal activity AMARE (damage score 0-5) (AMARE [2]) | Post-emergence herbicidal activity ABUTH (damage score 0-5) (ABUTH [3]) | Post-emergence herbicidal activity ECHCG (damage score 0-5) (ECHCG [4]) | Post-emergence herbicidal activity SETFA (damage score 0-5) (SETFA [5]) | Post-emergence herbicidal activity ZEAMX (damage score 0-5) (ZEAMX [6]) | ALOMY damage score, application pre-emergence (ALOMY [7]) | AMARE damage score, application pre-emergence (AMARE [8]) | ABUTH damage score, application pre-emergence (ABUTH [9]) | ECHCG damage score, application pre-emergence (ECHCG [10]) | SETFA damage score, application pre-emergence (SETFA [11]) | ZEAMX damage score, application pre-emergence (ZEAMX [12])
CCC1C(O)N(c2cc(C(F)(F)F)ccn2)C(=O)N1OC (single isomer, unassigned) [Compound A28] | 5 | 4 | 4 | 5 | 5 | 2 | 4 | 5 | 3 | 4 | 5 | 2
CC1C(O)N(c2cc(C(C)(C)C)ccn2)C(=O)N1C (single isomer, unassigned) [Compound A30] | 5 | 5 | 5 | 5 | 5 | 3 | 4 | 5 | 5 | 5 | 5 | 2
Cc1cnc(N2C(=O)N(C)C(C)C2O)cc1C(F)(F)F (single isomer, unassigned) [Compound A51] | 5 | 5 | 5 | 5 | 5 | 5 | 4 | 5 | 5 | 5 | 4 | 3
CON1C(=O)N(c2cc(C(F)(F)F)c(Br)cn2)C(O)C1C (single isomer, unassigned) [Compound A55] | 5 | 5 | 5 | 5 | 5 | 4 | 4 | 5 | 5 | 4 | 4 | 2
CC(=O)Nc1cnc(N2C(=O)N(C)C(C)C2O)cc1C(F)(F)F (single isomer, unassigned) [Compound A56] | 4 | 5 | 5 | 3 | 2 | 1 | 2 | 5 | 5 | 1 | 1 | 0
CC1C(O)N(c2cc(C(F)(F)F)c(NC(=O)C(C)(C)C)cn2)C(=O)N1C (single isomer, unassigned) [Compound A57] | 5 | 5 | 5 | 5 | 5 | 4 | 4 | 5 | 5 | 3 | 3 | 1
CON1C(=O)N(c2cc(C(F)(F)F)c(C)cn2)C(O)C1C (single isomer, unassigned) [Compound A58] | 4 | 5 | 5 | 5 | 5 | 4 | 4 | 5 | 5 | 3 | 3 | 4
CCC1C(O)N(c2cc(C(F)(F)F)ccn2)C(=O)N1C (stereo not drawn) [Compound A1] | 5 | 5 | 5 | 5 | 5 | 3 | 4 | 5 | 5 | 5 | 5 | 3
CCCOC1C(O)N(c2cc(C(F)(F)F)ccn2)C(=O)N1C (stereo not drawn) [Compound A2] | 4 | 5 | 5 | 5 | 5 | 2 | 2 | 5 | 5 | 4 | 3 | 1
